Where two headings read alike, the source gives them in different places.
Columns and labels:
TH = TH expression in striatum after 6-OHDA lesioning; format: in vivo, mouse; conditions: 6-OHDA 4 mg/mL, 2 μL unilateral, lesioned vs unlesioned side
Procedure: (§1) Protein samples of 50 lg ran on 10% sodium dodecyl sulfate-polyacrylamide gel electrophoresis gels and transferred onto polyvinylidine diflouride membranes using semi-dry transfer method (Trans turbo blot; BioRad Laboratories, Hercules, Calif., USA). Striatal samples from WT and P2X4R KO mice were made to run on the same gel and transferred onto the same membrane. Nonspecific binding was blocked by incubation in 5% non-fat dry milk, followed by incubation with primary antibodies overnight at 4° C. The antibodies used were rabbit anti-TH (1:5000), mouse anti-DAT (1:1000), rabbit anti-D2 receptor (1:1000), rabbit anti-DARPP-32 (1:1000) (Millipore), rabbit anti-D1 receptor (1:500; SantaCruz biotechnology, Santacruz, Calif., USA), mouse anti-total ERK 1/2 (1:1000), rabbit anti-total CREB (1:1000) (Cell Signaling Technology, Beverly, Mass., USA), mouse anti-β-actin (1:20 000; Sigma-Aldrich), and mouse anti-α-tubulin (1:10 000; Millipore). The antibodies for phospho proteins included rabbit antiphospho-Thr34-DARPP-32 (1:400; Millipore), rabbit anti-phospho-Ser133-CREB (1:500), rabbit anti-diphospho-Thr202/Tyr204-ERK 1/2 (1:500) (Cell Signaling Technology). Secondary antibodies included goat anti-mouse and goat anti-rabbit antibodies (1:10 000; BioRad Laboratories). […] Protein quantification was carried out by optical densitometry using ImageJ software (NIH, Bethesda, Md., USA). […]

[1] = cited from earlier work
CREB = experiment: Western immunoblotting of total and phosphorylated CREB in striatum after IVM; format: in vivo, mouse; conditions: effect of IVM treatment 5 mg/kg
Procedure: (§2) The dorsal and ventral striata were dissected from P2X4R KO and WT mice following killing with CO2 asphyxiation. […] The dorsal and ventral striata were dissected out as per the neuroanatomical landmarks described in the mouse brain atlas (Franklin, B. J. and Paxinos, G. (2007) The Mouse Brain in Stereotaxic Coordinates. Elsevier Academic Press, Amsterdam). The brain tissues were homogenized in a buffer containing 50 mM Tris-HCl pH (8.0), 150 mM NaCl, 1 mM EDTA, 0.1% sodium dodecyl sulfate, 1/100 dilution proteinases inhibitor cocktail (Millipore, Temecula, Calif., USA), and protein content was determined using bicinchoninic acid assay kit (Thermo Scientific, Rockford, Ill., USA). Homogenates were treated with a cocktail of phosphatase inhibitors (1 mM sodium pyrophosphate, 10 mM sodium fluoride, 0.5 mM sodium orthovandate, 10 mM β-glycerol phosphate, 1 μM microcysteine LR) (Sigma-Aldrich) for detection of phosphoproteins.
as §1, with “Millipore).” for “Millipore). The antibodies for phospho proteins included rabbit antiphospho-Thr34-DARPP-32 (1:400; Millipore), rabbit anti-phospho-Ser133-CREB (1:500), rabbit anti-diphospho-Thr202/Tyr204-ERK 1/2 (1:500) (Cell Signaling Technology). Secondary antibodies included goat anti-mouse and goat anti-rabbit antibodies (1:10 000; BioRad Laboratories).”
(§3) For the western blotting analysis, the average of densitometry values of WT striatal samples was used to arbitrarily normalize WT samples to 1 and the P2X4R KO striatal samples were normalized by dividing each densitometry value by the average of WT samples. […] Normalized density of proteins was expressed as mean±SEM. Phosphorylation was calculated as ratio of normalized values of phosphorylated form to total form of protein. DA levels were expressed as ng/mg of protein content. […] Pharmacological studies for motor behavior and sensorimotor gating were analyzed by two-way repeated measures ANOVA with time/PPI intensity and genotype/treatment as within and between-subjects variability, respectively, followed by Bonferroni post hoc test for multiple comparisons. […]

ERK 1/2 = experiment: Western immunoblotting of total and phosphorylated ERK 1/2 in striatum after IVM; format: in vivo, mouse
Procedure: as §2
as §1, with “Millipore).” for “Millipore). The antibodies for phospho proteins included rabbit antiphospho-Thr34-DARPP-32 (1:400; Millipore), rabbit anti-phospho-Ser133-CREB (1:500), rabbit anti-diphospho-Thr202/Tyr204-ERK 1/2 (1:500) (Cell Signaling Technology). Secondary antibodies included goat anti-mouse and goat anti-rabbit antibodies (1:10 000; BioRad Laboratories).”
as §3

DARPP-32 = experiment: Western immunoblotting of total and phosphorylated DARPP-32 in striatum after IVM; format: in vivo, mouse
Procedure: as §2
Protein samples of 50 lg ran on 10% sodium dodecyl sulfate-polyacrylamide gel electrophoresis gels and transferred onto polyvinylidine diflouride membranes using semi-dry transfer method (Trans turbo blot; BioRad Laboratories, Hercules, Calif., USA). Striatal samples from WT and P2X4R KO mice were made to run on the same gel and transferred onto the same membrane. Nonspecific binding was blocked by incubation in 5% non-fat dry milk, followed by incubation with primary antibodies overnight at 4° C. The antibodies used were rabbit anti-TH (1:5000), mouse anti-DAT (1:1000), rabbit anti-D2 receptor (1:1000), rabbit anti-DARPP-32 (1:1000) (Millipore), rabbit anti-D1 receptor (1:500; SantaCruz biotechnology, Santacruz, Calif., USA), mouse anti-total ERK 1/2 (1:1000), rabbit anti-total CREB (1:1000) (Cell Signaling Technology, Beverly, Mass., USA), mouse anti-β-actin (1:20 000; Sigma-Aldrich), and mouse anti-α-tubulin (1:10 000; Millipore). The antibodies for phospho proteins included rabbit antiphospho-Thr34-DARPP-32 (1:400; Millipore), rabbit anti-phospho-Ser133-CREB (1:500), rabbit anti-diphospho-Thr202/Tyr204-ERK 1/2 (1:500) (Cell Signaling Technology). Secondary antibodies included goat anti-mouse and goat anti-rabbit antibodies (1:10 000; BioRad Laboratories). Bands were visualized using chemiluminescence method (Clarity western plus enhanced chemiluminescence substrate; BioRad Laboratories) followed by exposure to HyBlot autoradiography films (Denville Scientific, Metuchen, N.J., USA). Protein quantification was carried out by optical densitometry using ImageJ software (NIH, Bethesda, Md., USA). Protein densities were normalized to β-actin or α-tubulin levels.
as §3

[2] = tested on: 6-OHDA lesioned WT and P2X4R KO mice; experiment: L-DOPA-induced rotational behavior in the 6-OHDA model of DA depletion (Example 1); format: in vivo, mouse
Procedure: Mice were treated with desipramine hydrochloride (25 mg/kg, i.p.) (Sigma-Aldrich) 30 min prior to surgery to prevent concurrent damage of noradrenergic pathways by 6-OHDA. Mice were anesthetized with avertin ([…], i.p.) and placed in the stereotaxic apparatus. Two μL of freshly prepared 6-OHDA bromide salt (4 mg/mL in 0.2% ascorbic acid and 0.9% saline; Sigma-Aldrich) was unilaterally infused into left median forebrain bundle (from Bregma point: 1.2 mm posterior, 1.1 mm lateral, 5 mm ventral) (Franklin, B. J. and Paxinos, G. (2007) The Mouse Brain in Stereotaxic Coordinates. Elsevier Academic Press, Amsterdam) at a rate of 0.5 μL/min using a 10 μL Hamilton syringe and a microlitre syringe pump. The injection cannula was left in place for 3-5 min to prevent reflux and ensure complete absorption. Post-operative procedures involved daily subcutaneous (s.c.) injections with sucrose (5% w/v in saline) and warming on a heating pad for 2 weeks.
Mice were subjected to behavioral testing 3 weeks after 6-OHDA lesioning surgery. Mice were placed in a plastic cylinder (318 mm in diameter) with a video camera mounted above it. Baseline rotational behavior was established by saline injections which causes the mouse to rotate toward the lesioned side with lesser DA activity (ipsilateral rotations). L-DOPA (5 mg/kg, s.c.) was administered 5 min prior to behavioral testing and the number of contralateral and ipsilateral rotations were counted in every 10-minute interval for a total period of 90 min.
For the western blotting analysis, the average of densitometry values of WT striatal samples was used to arbitrarily normalize WT samples to 1 and the P2X4R KO striatal samples were normalized by dividing each densitometry value by the average of WT samples. Normalization of the two genotypes was done within the same membrane and presented as fold change of P2X4R KO versus WT in that membrane. For D1, D2, DARPP-32, ERK 1/2, and CREB immunoblotting; WT and P2X4R KO mice were generated in separate cohorts. The normalization of P2X4R KO to WT samples was done within the same cohort followed by combining data from two cohorts for analyses. […] Normalized density of proteins was expressed as mean±SEM. Phosphorylation was calculated as ratio of normalized values of phosphorylated form to total form of protein. DA levels were expressed as ng/mg of protein content. Unpaired Student t-test was used for analyzing the differences in protein densities and DA levels between WT and P2X4R KO groups. […] Pharmacological studies for motor behavior and sensorimotor gating were analyzed by two-way repeated measures ANOVA with time/PPI intensity and genotype/treatment as within and between-subjects variability, respectively, followed by Bonferroni post hoc test for multiple comparisons. Significance was set at p<0.05. All data were analyzed using GraphPad Prism software (San Diego, Calif., USA).

WT and P2X4R KO mice [3] = conditions: Bortolato et al. 2013, cited from earlier work
WT and P2X4R KO mice [4] = experiment: Prepulse inhibition (PPI) of acoustic startle reflex; format: in vivo, mouse
Procedure: Acoustic startle reflex and PPI were tested as previously described (Wyatt, L. R. et al. (2013) Neuropsychopharmacology 38:1993-2002). The apparatus used for detection of startle reflex (San Diego Instruments, San Diego, Calif., USA) consisted of a standard cage placed in sound attenuated chambers with fan ventilation. Each cage consisted of a Plexiglass cylinder of 3 cm diameter, mounted on piezoelectric accelerometric platform connected to an analog-digital converter. Background noise and acoustic bursts were conveyed by two separate speakers, each one oriented appropriately so as to produce a variation in sound within 1 dB across the startle cage. Both speakers and startle cages were connected to the main PC, which detected and analyzed all chamber variables with Startle software (San Diego Instruments). Before each testing session, acoustic stimuli were calibrated via a digital sound level meter.
During the baseline session, mice were exposed to background noise of 70 dB and, after an acclimatization period of 5 min, were presented with 12 40 ms trials of 115 dB interposed with three trials of a 82 dB pre-stimulus preceding the 115 dB by 100 ms. […] Delta PPI (APPI) was calculated as mean startle amplitude for pulse alone trials—(mean startle amplitude for prepulse trial). […]
as §3

[5] = ventral striatum, effect of IVM treatment 5 mg/kg
[6] = ventral striatum, main effect of IVM treatment 5 mg/kg, treatment×genotype interaction significant (p<0.05)

## NCCc1cc(O)c(O)cc1O [6-OHDA, 6-hydroxydopamine]
TH; P2X4R KO mice
  reduced TH expression in the striatum: 96.3%
TH; WT mice
  reduced TH expression in the striatum: 95.7%

## C[C@@](Cc1ccc(O)c(O)c1)(NN)C(=O)O.O [Carbidopa, N-amino-α-methyl-3-hydroxy-L-tyrosine monohydrate]
[1]
  solubility in water: slightly soluble

## CC[C@H](C)[C@H]1O[C@]2(CC[C@@H]1C)C[C@@H]1C[C@@H](C/C=C(\C)[C@@H](O[C@H]3C[C@H](OC)[C@@H](O[C@H]4C[C@H](OC)[C@@H](O)[C@H](C)O4)[C@H](C)O3)[C@@H](C)/C=C/C=C3\CO[C@@H]4[C@H](O)C(C)=C[C@@H](C(=O)O1)[C@]34O)O2 [IVM, ivermectin]
CREB; dorsal striatum
  CREB phosphorylation: no significant effect
  total CREB levels: no significant effect
CREB; ventral striatum
  total CREB levels: no significant effect
CREB; ventral striatum, interaction trended toward significance
  CREB phosphorylation: no significant effect
ERK 1/2; dorsal striatum, IVM 5 mg/kg, both genotypes (independent of P2X4R function)
  ERK 1/2 phosphorylation: increased
ERK 1/2; dorsal striatum, main effect of IVM treatment, treatment×genotype interaction significant
  total ERK 1/2 levels: no significant effect
ERK 1/2; [5]
  ERK 1/2 phosphorylation: no significant effect
  total ERK 1/2 levels: no significant effect
DARPP-32; dorsal striatum, P2X4R KO mice, IVM 5 mg/kg i.p., 8 h post-drug
  DARPP-32 phosphorylation: did not increase
DARPP-32; dorsal striatum, WT mice, IVM 5 mg/kg i.p., 8 h post-drug, vs vehicle, Bonferroni p<0.05
  DARPP-32 phosphorylation: significant increase
DARPP-32; dorsal striatum, main effect of IVM treatment (5 mg/kg i.p.), treatment×genotype interaction significant
  total DARPP-32 levels: no significant effect
DARPP-32; [6]
  DARPP-32 phosphorylation: no significant effect
  total DARPP-32 levels: no significant effect
[2]; 6-OHDA P2X4R KO mice, IVM 5 mg/kg + L-DOPA 5 mg/kg vs L-DOPA alone, during the 5-15 min interval
  L-DOPA induced motor behavior (contralateral rotations): significant increase
[2]; 6-OHDA WT mice, IVM 5 mg/kg i.p. 8 h prior + L-DOPA 5 mg/kg s.c. vs L-DOPA alone, significant 5-65 min
  number of L-DOPA-induced rotations (contralateral): significantly increased
[2]; 6-OHDA WT mice, IVM 5 mg/kg i.p. 8 h prior, average for 2 hours, SEM ±2, significant vs sham controls
  rotations induced by IVM alone (ipsilateral): 12 rotations
WT and P2X4R KO mice [3]; P2X4R KO mice
  PPI (effect of IVM): attenuated response
WT and P2X4R KO mice [3]; WT C57BL/6J mice
  PPI (effect of IVM): PPI disruption

## N[C@@H](Cc1ccc(O)c(O)c1)C(=O)O [L-DOPA, L-3,4-didhydrophenylalanine]
[2]; L-DOPA 5 mg/kg s.c., 6-OHDA lesioned WT and P2X4R KO mice
  rotational behavior with L-DOPA treatment: exhibited contralateral rotations
[2]; L-DOPA 5 mg/kg, significant during the 45-55 min interval
  L-DOPA-induced contralateral turns, P2X4R KO compared to WT mice: significantly fewer

## CCN1CCC[C@H]1CNC(=O)c1c(O)c(Cl)cc(Cl)c1OC [raclopride]
WT and P2X4R KO mice [4]; P2X4R KO mice vs saline, SCH-23390 1 mg/kg i.p. or raclopride 3 mg/kg i.p., 10 min prior, significant at PPI 6 and PPI 12
  PPI of acoustic startle reflex: significantly enhanced
WT and P2X4R KO mice [4]; P2X4R KO mice, SCH-23390 1 mg/kg or raclopride 3 mg/kg
  startle amplitude: without any changes
WT and P2X4R KO mice [4]; WT mice, SCH-23390 1 mg/kg or raclopride 3 mg/kg i.p.
  PPI function: no significant changes
